Data published in US10137122B2, “Kinase inhibitors and methods of use thereof” (priority 2012, dated 2018).
Read-outs that look alike come from different tables or passages of the source.

Key:
[1] = test system: β-catenin nuclear translocation in U2-OS cells; experiment: β-Catenin nuclear localization assay; assay type: cell-based; settings: read-out: beta-Catenin translocation EC50
Description: β-Catenin Nuclear Localization Assay
U2-OS cells stably expressing two complimentary β-galactosidase fragments (one part on β-Catenin and the other constitutively expressed in the cell nucleus) were maintained in DMEM F12 supplemented with 10% FBS. When β-catenin translocates to the nucleus, the complimentary fragments form a complete β-galactosidase, the amount of which is then quantified by β-galactosidase activity (DiscoveRx). Cells were seeded in a 384-well CulturPlate (Perkin Elmer, Boston, Mass.) with 10,000 per well in 20 μL DMEM F12 containing 10% FCS, 100 U/ml penicillin and 100 μg/mL streptomycin. After overnight incubation at 37° C., cells were stimulated with 100 nL test compound/well and then returned to the incubator for 6 h. Cells were disrupted using 12 μL substrate-containing lysis buffer from the PathHunter Detection Kit in the formulation specified by the supplier (DiscoveRx). Plates were incubated in the dark for 1 h at room temperature before measurement of β-galactosidase activity (luminescence) on an EnVision plate reader (PerkinElmer, Waltham, Mass.).

[2] = test system: phospho-Tau (Ser199) in SH-SY5Y cells; experiment: Tau phosphorylation assay (phospho-Tau Ser199 ELISA); assay type: cell-based, human; settings: read-out: p-Tau Inhibition ELISA EC50 SH-SY5Y
Description: Tau Phosphorylation and Total Tau Assay
SH-SY5Y cells were maintained in DMEM supplemented with 10% heat-inactivated FBS and 1% penicillin-streptomycin (Invitrogen) unless otherwise stated. ELISA kits for phospho-Tau (Ser199) and total Tau detection were purchased from Invitrogen (KHB0041, and KHB7041 respectively). Briefly, SH-SY5Y cells were seeded at 50,000 cells/200 μL/well in 96 well plates and after overnight incubation, treated with various doses of chemical compounds at 0.2 μL/well. The next day cells were washed with PBS twice before being lysed in 100 μL Lysis buffer/well. 50 μL of cell lysate of each sample was transferred to an ELISA vial coated with the capture antibody, and the mixture was incubated at room temperature for 2 hours, before the supernatant was aspired, and each vial washed four times. 100 μL of detection antibody was then added to each well, incubated for 1 hour, and then washed four times. […] Data were scaled using the positive and neutral controls and fitted for IC50.
A standard protocol using an immunoassay kit to quantify total Tau protein and phospho-Tau (Ser199) protein in SH-SY5Y human neuroblastoma cells was employed. Human Tau (Total) ELISA kit (#KHB0041) and human phosphor-Tau (Ser199) ELISA kit were purchased from Invitrogen (#KHB7041)
50,000 cells were seeded in 200 μl per well in cell culture media (250,000 cells/ml). Cells were incubated overnight @37° C. Cells were induced with appropriate doses of inhibitors and incubated for approximately 24 hrs @37° C. Cell lysates were harvested by washing cells once with cold PBS and adding 100 μl cold lysis buffer and pipette up and down vigorously. Lysate was transferred to 96 well PCR plate and centrifuged at 4,000 rpm for 20 minutes at 4° C.
Well strips were warmed and inserted into the frame. 100μ of standard diluent buffer were loaded into ZERO wells, and 100 ul of each standard concentrations (both total Tau and pTau) were loaded into wells in duplicate. Samples were loaded to each well that would be analyzed for total Tau, 85 μl standard diluent buffer and 15 μl cell lysate were added. To each well that will be analyzed for pTau (Ser199) 50 μl standard diluent buffer+50 μl cell lysate were added. Plates were tapped gently on the side to mix. Certain wells were left empty for chromogen blank. Plates were covered and incubated for 2 hours at room temperature. Wells were aspirated 4 times (400 μl diluted wash buffer, left for 30 seconds, aspirated all wells; alternatively used automated plate washer and programmed in a 30 second hold between each cycle). 100 μl of detection antibody solution were added to each well except chromogen blanks. Anti-total Tau was added to wells being analyzed for total Tau, anti-pTau (Ser199) was added to wells being analyzed for pTau (Ser199), and plates were tapped gently on the side to mix. Plates were covered and incubated for 1 hour at room temperature, then wells were aspirated and washed 4 times as described above. 100 μl of anti-rabbit IgG HRP working solution (prepared ahead) were added to each well except chromogen blanks, and plates were covered and incubated for 30 minutes at room temperature, then wells were aspirated and washed 4 times as described above. 100 μl of stabilized chromogen were added to each well (the liquid turned blue). Plates were incubates for 30 minutes at room temperature in the dark, then 100 μl of stop solution were added to each well, and plates were tapped gently on the side to mix. Absorbance of each well was read at 450 nm (within 2 hours of adding stop solution).

[3] = test system: TCF/LEF reporter in HEK293-pBARL cells; experiment: cells; settings: Homo sapiens
Description: (§1) HEK293-pBARL cells were derived from HEK293 cells and they stably expressed a firefly-luciferase reporter gene driven by a promoter containing 12 copies of TCF/LEF binding sequences. These cells were maintained in DMEM and supplemented with 10% FBS and 1% penicillin-streptomycin (Invitrogen). Reporter gene assays were conducted in anti-biotic free media. […] These cells also contained a renilla-luciferase reporter gene driven by the ubiquitous EF1α promoter as a control. HEK293-pBarl reporter cell lines were seeded into 384-well culture plates (Corning) at 6000 cells/well. 24 hours after plating, cells were treated overnight with relevant compounds and assayed using DualGlo assay kit (Promega). Luminescent intensities were read by EnVision (PerkinElmer, Waltham, Mass.). Firefly luciferase intensity is normalized by renilla luciferase intensity.
(§2) Cells were cultured in 384 well plates to appropriate density (40 μl total plating volume). 24 hours after plating, cells were treated with 100 nl compounds. 24 hours after incubation with compounds (48 hours after plating), assay reagents were prepared by mixing Luciferase Assay solution with Luciferase substrate and Stop & Glo solution to Stop & Glo substrate (extra reagents can be aliquoted and frozen for future use and are stable for at least one freeze/thaw cycle). […] The plate was spun down and 10 minutes were allowed for signal stabilization. Luciferase signal on the Perkin Elmer EnVision using the following parameters: Distance between plate & detector (mm)=0.2; Measurement time(s)=0.1; Glow (CT2) correction factor=0. Once the initial data is secure, a volume of Stop & Glo was added equal to each well equal to the volume of Luciferase reagent added above (If 10 μl Luciferase Reagent was added, 10 μl Stop & Glo was also added). The plate was spun down and 10 minutes were allowed for signal stabilization. The plate was read on the EnVision using the same parameters detailed above.

[4] = target: CDK5/p25 (Homo sapiens (Human), UniProt Q00535)
Description: Biochemical characterization of these synthesized compounds were assayed against GSK3β and CDK5/p25, with CDK5/p25 serving as a counter target of GSK3β selectivity. […] The effects of these compounds on survival of SH-SY5Y pathophysiology cells were also monitored.

[5] = mouse plasma, 5 hours
[6] = test system: TCF/LEF reporter in HEK293-pBARL cells; settings: read-out: TCF/LEF EC50
Description: as §1, §2

[7] = target: GSK3α (Homo sapiens (Human), UniProt P49840)
Description: GSK3β Microfluidic Mobility-Shift Assay
Reactions were terminated by the addition of 10 mM EDTA. Substrate and product were separated electrophoretically and fluorescence intensity of the substrate and product was determined by Labchip EZ Reader II (Caliper Life Sciences, MA). The kinase activity was measured as percent conversion. The reactions were performed in duplicate for each sample. […] The results were analyzed by Genedata Assay Analyzer. The percent inhibition was plotted against the compound concentration and the IC50 value was determined from the logistic dose-response curve fitting.

[8] = mouse, microsomes, 1 h
[9] = HEK293, read-out: TCF/LEF EC50 (μM)

CDK5/p25, sequence (Q00535 whole entry, species assumed): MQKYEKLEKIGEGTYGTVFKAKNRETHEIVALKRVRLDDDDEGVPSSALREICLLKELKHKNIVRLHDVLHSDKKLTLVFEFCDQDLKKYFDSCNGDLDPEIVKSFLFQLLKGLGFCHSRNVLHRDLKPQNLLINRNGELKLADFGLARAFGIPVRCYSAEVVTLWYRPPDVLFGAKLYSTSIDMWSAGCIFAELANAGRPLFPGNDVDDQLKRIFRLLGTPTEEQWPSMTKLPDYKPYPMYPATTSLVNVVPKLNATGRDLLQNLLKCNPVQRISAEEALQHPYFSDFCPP
CDK5/p25, sequence (Q15078 99-307 partner, species assumed): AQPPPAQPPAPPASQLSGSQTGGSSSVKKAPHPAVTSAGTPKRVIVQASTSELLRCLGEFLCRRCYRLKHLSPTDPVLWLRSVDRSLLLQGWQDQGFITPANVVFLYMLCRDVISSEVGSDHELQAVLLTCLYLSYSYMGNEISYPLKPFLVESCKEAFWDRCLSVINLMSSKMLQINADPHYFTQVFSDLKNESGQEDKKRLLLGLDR
GSK3α, sequence (P49840 whole entry): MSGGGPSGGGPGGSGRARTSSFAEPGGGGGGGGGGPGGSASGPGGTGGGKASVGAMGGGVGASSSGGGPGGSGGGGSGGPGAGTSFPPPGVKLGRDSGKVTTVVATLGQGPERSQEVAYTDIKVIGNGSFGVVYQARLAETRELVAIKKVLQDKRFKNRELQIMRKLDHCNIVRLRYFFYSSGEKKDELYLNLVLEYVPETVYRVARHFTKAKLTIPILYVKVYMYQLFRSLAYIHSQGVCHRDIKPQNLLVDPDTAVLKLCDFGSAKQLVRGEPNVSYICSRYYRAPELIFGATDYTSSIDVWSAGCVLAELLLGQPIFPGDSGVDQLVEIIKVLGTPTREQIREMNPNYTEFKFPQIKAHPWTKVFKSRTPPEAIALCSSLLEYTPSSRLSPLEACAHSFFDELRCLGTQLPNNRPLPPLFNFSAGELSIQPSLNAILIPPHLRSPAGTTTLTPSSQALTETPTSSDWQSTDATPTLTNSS

## Cc1[nH]nc2c1C(c1ccccc1C(F)(F)F)C1=C(CC(C)(C)CC1=O)N2 (racemic) [Compound 27, 3,7,7-trimethyl-4-(2-(trifluoromethyl)phenyl)-6,7,8,9-tetrahydro-2H-pyrazolo[3,4-b]quinolin-5(4H)-one]
[1]; Homo sapiens, U2OS
  EC50: 12 µM
[2]; Homo sapiens, SH-SY5Y
  EC50: 4.24 µM
[3]; [9]
  EC50: 9.59 µM
[4]
  ADP Glo Assay GSK3β vs CDK5 fold selectivity: 34X

## Cc1[nH]nc2c1C(C)(c1cccc(C#N)c1)C1=C(CC(C)(C)CC1=O)N2 (racemic) [Compound 95, 3-(1,6,6,9-tetramethyl-8-oxo-4,5,6,7,8,9-hexahydro-2H-pyrazolo[3,4-b]quinolin-9-yl)benzonitrile]
[2]; Homo sapiens, SH-SY5Y
  EC50: 6.35 µM
[5]
  Plasma stability % remaining: 99.0%

## CC1(C)CC(=O)C2=C(C1)Nc1n[nH]c(C(F)(F)F)c1C2(C)c1ccccc1 (racemic) [Compound 68, 4,7,7-trimethyl-4-phenyl-3-(trifluoromethyl)-6,7,8,9-tetrahydro-2H-pyrazolo[3,4-b]quinolin-5(4H)-one]
[1]; Homo sapiens, U2OS
  EC50: 10.8 µM
[3]; [9]
  EC50: 7.77 µM
[4]
  ADP Glo Assay GSK3β vs CDK5 fold selectivity: 244X

## CC1(C)CC(=O)C2=C(C1)Nc1n[nH]c(C(F)(F)F)c1C2c1cc(F)ccc1F (stereo not drawn) [Compound 60]
[6]
  EC50: > 25 µM

## CSc1ccccc1C1C2=C(CC(C)(C)CC2=O)Nc2n[nH]c(C)c21 (stereo not drawn) [Compound 25, 3,7,7-trimethyl-4-(2-(methylthio)phenyl)-6,7,8,9-tetrahydro-2H-pyrazolo[3,4-b]quinolin-5(4H)-one]
[1]; Homo sapiens, U2OS
  EC50: 10.9 µM
[2]; Homo sapiens, SH-SY5Y
  EC50: 2.85 µM
[3]; [9]
  EC50: 4.34 µM

## Cc1[nH]nc2c1[C@H](c1ccccc1C(F)(F)F)C1=C(CC(C)(C)CC1=O)N2 (stereo in doubt) [Compound 28, 3,7,7-trimethyl-4-(2-(trifluoromethyl)phenyl)-6,7,8,9-tetrahydro-2H-pyrazolo[3,4-b]quinolin-5(4H)-one]
[1]; Homo sapiens, U2OS
  EC50: 6.32 µM
[2]; Homo sapiens, SH-SY5Y
  EC50: 1.8 µM
[3]; [9]
  EC50: 4.8 µM

## Cc1[nH]nc2c1[C@@H](c1ccccc1C(F)(F)F)C1=C(CC(C)(C)CC1=O)N2 (stereo in doubt) [Compound 29, 3,7,7-trimethyl-4-(2-(trifluoromethyl)phenyl)-6,7,8,9-tetrahydro-2H-pyrazolo[3,4-b]quinolin-5(4H)-one]
[1]; Homo sapiens, U2OS
  EC50: > 50 µM
[2]; Homo sapiens, SH-SY5Y
  EC50: > 30 µM
[3]; [9]
  EC50: > 25 µM

## CC1(C)CC(=O)C2=C(C1)Nc1n[nH]c(C(F)(F)F)c1C2c1cc(F)ccc1C(F)(F)F (stereo not drawn) [Compound 64]
[6]
  EC50: > 25 µM

## Cc1[nH]nc2c1C(c1ccccc1Cl)C1=C(CC(C)(C)CC1=O)N2 (stereo not drawn) [Compound 13, 4-(2-chlorophenyl)-3,7,7-trimethyl-6,7,8,9-tetrahydro-2H-pyrazolo[3,4-b]quinolin-5(4H)-one]
[1]; Homo sapiens, U2OS
  EC50: 41.1 µM
[2]; Homo sapiens, SH-SY5Y
  EC50: 2.49 µM
[3]; [9]
  EC50: 24 µM

## COc1ccccc1C1C2=C(CCCC2=O)Nc2n[nH]c(C)c21 (stereo not drawn) [Compound 46]
[1]
  EC50: > 50 µM
[6]
  EC50: > 25 µM
[4]
  ADP Glo Assay GSK3β vs CDK5 fold selectivity: 6X

## Cc1[nH]nc2c1C(c1cccc(C(F)(F)F)c1)C1=C(CC(C)(C)CC1=O)N2 (stereo not drawn) [Compound 30, 3,7,7-trimethyl-4-(3-(trifluoromethyl)phenyl)-6,7,8,9-tetrahydro-2H-pyrazolo[3,4-b]quinolin-5(4H)-one]
[1]; Homo sapiens, U2OS
  EC50: 11.2 µM
[2]; Homo sapiens, SH-SY5Y
  EC50: 4.68 µM
[3]; [9]
  EC50: 7.67 µM

## Cc1ccccc1C1C2=C(CC(C)(C)CC2=O)Nc2n[nH]c(C)c21 (stereo not drawn) [Compound 17, 3,7,7-trimethyl-4-(o-tolyl)-6,7,8,9-tetrahydro-2H-pyrazolo[3,4-b]quinolin-5(4H)-one]
[7]
  IC50: < 0.1 µM
[1]; Homo sapiens, U2OS
  EC50: > 50 µM
[3]; [9]
  EC50: > 25 µM
[4]
  ADP Glo Assay GSK3β vs CDK5 fold selectivity: 14X

## Cc1[nH]nc2c1C(c1ccccc1Br)C1=C(CC(C)(C)CC1=O)N2 (stereo not drawn) [Compound 16]
[4]
  ADP Glo Assay GSK3β vs CDK5 fold selectivity: 14X

## COc1ccccc1C1C2=C(CC(C)(C)CC2=O)Nc2n[nH]c(C(C)C)c21 (stereo not drawn) [Compound 49]
[1]
  EC50: > 50 µM
[6]
  EC50: > 25 µM
[4]
  ADP Glo Assay GSK3β vs CDK5 fold selectivity: 14X

## CC1(C)CC(=O)C2=C(C1)Nc1n[nH]c(C(F)(F)F)c1[C@H]2c1ccccc1C(F)(F)F (stereo in doubt) [Compound 73, 7,7-dimethyl-3-(trifluoromethyl)-4-(2-(trifluoromethyl)phenyl)-6,7,8,9-tetrahydro-2H-pyrazolo[3,4-b]quinolin-5(4H)-one]
[2]; Homo sapiens, SH-SY5Y
  EC50: 22 µM
[3]; [9]
  EC50: > 25 µM

## Cc1[nH]nc2c1C(c1ccccc1)(C(F)(F)F)C1=C(CC(C)(C)CC1=O)N2 (stereo not drawn) [Compound 83]
[8]
  Microsomal stability 60 min: 51.5%

## CC1(C)CC(=O)C2=C(C1)Nc1n[nH]c(C3CC3)c1C2(C)c1ccccc1 (racemic) [Compound 113]
[2]; Homo sapiens, SH-SY5Y
  EC50: 4.8 µM
[5]
  Plasma stability % remaining: 90.5%

## CC1(C)CC(=O)C2=C(C1)Nc1n[nH]cc1[C@]2(C)c1ccccc1 (racemic) [Compound 108]
[5]
  Plasma stability % remaining: 96.6%

## COc1ccccc1C1C2=C(CC(C)(C)CC2=O)Nc2n[nH]c(C)c21 (racemic) [Compound 20, 4-(2-methoxyphenyl)-3,7,7-trimethyl-6,7,8,9-tetrahydro-1H-pyrazolo[3,4-b]quinolin-5(4H)-one]
[2]; Homo sapiens, SH-SY5Y
  EC50: 9.14 µM
[3]; [9]
  EC50: 17.9 µM

## COc1ccccc1[C@H]1C2=C(CC(C)(C)CC2=O)Nc2n[nH]c(C)c21 [Compound 21, 4-(2-methoxyphenyl)-3,7,7-trimethyl-6,7,8,9-tetrahydro-1H-pyrazolo[3,4-b]quinolin-5(4H)-one]
[2]; Homo sapiens, SH-SY5Y
  EC50: > 30 µM
[3]; [9]
  EC50: > 25 µM

## CC1(C)CC(=O)C2=C(C1)Nc1n[nH]c(C(F)(F)F)c1C2c1cc(F)ccc1OC(F)(F)F (stereo not drawn) [Compound 61]
[6]
  EC50: > 25 µM

## COc1ccccc1C1C2=C(CC(C)(C)CC2=O)Nc2n[nH]c(-c3ccccc3)c21 (stereo not drawn) [Compound 51]
[1]
  EC50: > 50 µM
[6]
  EC50: > 25 µM

## CCc1[nH]nc2c1C(c1ccccc1OC)C1=C(CC(C)(C)CC1=O)N2 (stereo not drawn) [Compound 48]
[4]
  ADP Glo Assay GSK3β vs CDK5 fold selectivity: 35X

## Cc1[nH]nc2c1C(c1cccc(C#N)c1)C1=C(CC(C)(C)CC1=O)N2 (stereo not drawn) [Compound 33, 3-(3,7,7-trimethyl-5-oxo-4,5,6,7,8,9-hexahydro-2H-pyrazolo[3,4-b]quinolin-4-yl)benzonitrile]
[1]; Homo sapiens, U2OS
  EC50: 12 µM
[2]; Homo sapiens, SH-SY5Y
  EC50: 2.5 µM
[3]; [9]
  EC50: 5.16 µM

## Cc1[nH]nc2c1C(c1cccc3nonc13)C1=C(CC(C)(C)CC1=O)N2 (stereo not drawn) [Compound 41, 4-(benzo[c][1,2,5]oxadiazol-4-yl)-3,7,7-trimethyl-6,7,8,9-tetrahydro-2H-pyrazolo[3,4-b]quinolin-5(4H)-one]
[7]
  IC50: < 0.1 µM
[1]; Homo sapiens, U2OS
  EC50: 11.8 µM
[2]; Homo sapiens, SH-SY5Y
  EC50: 2.27 µM
[3]; [9]
  EC50: 6.7 µM
[4]
  ADP Glo Assay GSK3β vs CDK5 fold selectivity: 51X

## CC1(C)CC(=O)C2=C(C1)Nc1n[nH]c(C(F)(F)F)c1C2c1ccc(F)cc1C(F)(F)F (stereo not drawn) [Compound 65]
[6]
  EC50: > 25 µM
[4]
  ADP Glo Assay GSK3β vs CDK5 fold selectivity: 130X

## COc1ccccc1[C@H]1C2=C(CC(C)(C)CC2=O)Nc2n[nH]c(C(F)(F)F)c21 [Compound 55, (S)-4-(2-methoxyphenyl)-7,7-dimethyl-3-(trifluoromethyl)-6,7,8,9-tetrahydro-2H-pyrazolo[3,4-b]quinolin-5(4H)-one]
[1]; Homo sapiens, U2OS
  EC50: > 50 µM
[2]; Homo sapiens
  EC50: > 30 µM
[3]; HEK293, read-out: TCF/LEF EC50 (μM), HEK293 reporter cells
  EC50: > 25 µM

## COc1ccccc1C1C2=C(CC3(CCCCC3)CC2=O)Nc2n[nH]c(C)c21 (stereo not drawn) [Compound 56]
[1]
  EC50: > 50 µM
[6]
  EC50: > 25 µM

## Cc1[nH]nc2c1C(C1CCCCC1)C1=C(CC(C)(C)CC1=O)N2 (stereo not drawn) [Compound 44]
[1]
  EC50: > 50 µM
[6]
  EC50: > 25 µM

## COc1ccccc1C1C2=C(CC(C)(C)CC2=O)Nc2n[nH]cc21 (stereo not drawn) [Compound 47]
[4]
  ADP Glo Assay GSK3β vs CDK5 fold selectivity: 34X

## COc1ccccc1C1C2=C(CCC(C)(C)C2=O)Nc2n[nH]c(C)c21 (stereo not drawn) [Compound 45]
[1]
  EC50: > 50 µM
[6]
  EC50: > 25 µM
[4]
  ADP Glo Assay GSK3β vs CDK5 fold selectivity: 20X

## Cc1[nH]nc2c1C(C1CC1)C1=C(CC(C)(C)CC1=O)N2 (stereo not drawn) [Compound 43]
[1]
  EC50: > 50 µM
[2]
  EC50: > 30 µM
[6]
  EC50: > 25 µM

## COc1ccccc1C1C2=C(CC(C)(C)CC2=O)Nc2n[nH]c(C(C)(C)C)c21 (stereo not drawn) [Compound 50]
[1]
  EC50: > 50 µM
[6]
  EC50: > 25 µM

## CC1(C)CC(=O)C2=C(C1)Nc1n[nH]c(C(F)(F)F)c1C2c1ccccc1F (stereo not drawn) [Compound 58]
[6]
  EC50: > 25 µM

## COC(=O)c1[nH]nc2c1C(C)(c1ccccc1)C1=C(CC(C)(C)CC1=O)N2 (stereo not drawn) [Compound 104]
[2]; Homo sapiens, SH-SY5Y
  EC50: 4.48 µM

## CC1(C)CC(=O)C2=C(C1)Nc1n[nH]c(C(F)(F)F)c1[C@@H]2c1ccccc1C(F)(F)F (stereo in doubt) [Compound 72, 7,7-dimethyl-3-(trifluoromethyl)-4-(2-(trifluoromethyl)phenyl)-6,7,8,9-tetrahydro-2H-pyrazolo[3,4-b]quinolin-5(4H)-one]
[2]; Homo sapiens, SH-SY5Y
  EC50: 0.426 µM
[3]; [9]
  EC50: 1.49 µM

## Cc1[nH]nc2c1C(C)C1=C(CC(C)(C)CC1=O)N2 (stereo not drawn) [Compound 42]
[1]
  EC50: > 50 µM
[6]
  EC50: > 25 µM
[4]
  ADP Glo Assay GSK3β vs CDK5 fold selectivity: 23X
